Measured values from patent US20240009156A1, “METHODS AND FORMULATIONS FOR PRENATAL TREATMENT OF ALLAN-HERNDON-DUDLEY SYNDROME” (PriZm, LLC, priority 2022, published 2024).

How the values were obtained:
[1] = human, in vivo; cited from earlier work
[2] = T3 and T4 concentration in humans with MCT8 deficiency; assay type: in vivo
[3] = Effect of DITPA on removal of gastrostomy tube (G-tube); assay type: in vivo, human; details: one child who started DITPA while having a G-tube
[4] = test system: MCT8 mutant (mct8−/−) zebrafish; details: cited from earlier work
[5] = test system: MCT8-mutant (mct82/2) larvae; details: cited from earlier work
[6] = test system: MCT8-deficient (knockout) mice (Mct8KO); details: cited from earlier work
wild type mice = details: T3-treated wild type mice; cited from earlier work

With O=C(O)Cc1cc(I)c(Oc2ccc(O)c(I)c2)c(I)c1 [TRIAC, triiodothyroacetic acid] as the compound, how does the “effects in pediatric subjects” value [1] read?
The value was “analog Triac has also been studied in pediatric subjects with positive”.

What does the source list for O=C(O)CCc1cc(I)c(Oc2ccc(O)cc2)c(I)c1 [DITPA, 3,5-diiodothyropropionic acid]?
T3 concentration [2]: reduction; T4 concentration [2]: increase; G-tube [3]: removed; body weight [3]: gained weight; hypomyelination in the CNS [4]: TH analogs partially rescued the hypomyelination in the CNS of MCT8; myelin and axon outgrowth deficiencies [5]: restored the myelin and axon outgrowth deficiencies in mct82/2 larvae; TH deficit [6]: corrects the TH deficit; analysis of TH target genes: thyrotoxic state in the liver [6]: target genes revealed amelioration of the thyrotoxic state in the liver; measurements and other parameters of TH action [6]: SRW101 normalized all measurements and other parameters of TH; thyrotoxic effect in the liver [6]: without causing

Which results are given for N[C@@H](Cc1cc(I)c(Oc2ccc(O)c(I)c2)c(I)c1)C(=O)O [T3, triiodothyronine]?
TEE (total energy expenditure) (wild type mice): mice showed increased food intake and TEE, similar to MCT8KO mice.; food intake (wild type mice): mice showed increased food intake and TEE, similar to MCT8KO mice.
